Calls of active or inactive are those of the source. The rule behind the calls is not given here.
Assays:
MCF7/ADM [1] = assay: Antitumor activity against human MCF7/ADM cells xenografted in BALB/c mouse assessed as reduction in tumor volume at 50 mg/kg, ip measured every 2 days; format: functional, organism-based; details: time 2.0 day
A549/CDDP [2] = assay: Downregulation of p-gp level in human A549/DDP cells at 6.25 to 25 uM incubated for 24 hrs; format: functional, cell-based; details: dose 6.25-25 µM
[3] = target: T1, von Hippel-Lindau disease tumor suppressor/Phosphatidylinositol 4,5-bisphosphate 3-kinase catalytic subunit beta isoform (Homo sapiens, UniProt P42338+P40337); assay: PROTAC activity at PI3K-p110beta/VHL in human A549/DDP cells assessed as induction of PI3K-p110beta degradation at 25 uM measured for 24 hrs in presence of TGX221 by Western blot analysis; format: cell-based
Target sequence in this assay (P40337 whole entry, looked up, canonical isoform): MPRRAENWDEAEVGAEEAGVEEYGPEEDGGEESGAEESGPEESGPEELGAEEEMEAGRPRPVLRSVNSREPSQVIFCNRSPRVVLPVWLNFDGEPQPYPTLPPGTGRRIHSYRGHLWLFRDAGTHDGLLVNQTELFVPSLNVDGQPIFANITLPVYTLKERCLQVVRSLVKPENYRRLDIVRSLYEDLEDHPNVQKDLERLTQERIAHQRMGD
Target sequence in this assay (P42338 whole entry, looked up, canonical isoform): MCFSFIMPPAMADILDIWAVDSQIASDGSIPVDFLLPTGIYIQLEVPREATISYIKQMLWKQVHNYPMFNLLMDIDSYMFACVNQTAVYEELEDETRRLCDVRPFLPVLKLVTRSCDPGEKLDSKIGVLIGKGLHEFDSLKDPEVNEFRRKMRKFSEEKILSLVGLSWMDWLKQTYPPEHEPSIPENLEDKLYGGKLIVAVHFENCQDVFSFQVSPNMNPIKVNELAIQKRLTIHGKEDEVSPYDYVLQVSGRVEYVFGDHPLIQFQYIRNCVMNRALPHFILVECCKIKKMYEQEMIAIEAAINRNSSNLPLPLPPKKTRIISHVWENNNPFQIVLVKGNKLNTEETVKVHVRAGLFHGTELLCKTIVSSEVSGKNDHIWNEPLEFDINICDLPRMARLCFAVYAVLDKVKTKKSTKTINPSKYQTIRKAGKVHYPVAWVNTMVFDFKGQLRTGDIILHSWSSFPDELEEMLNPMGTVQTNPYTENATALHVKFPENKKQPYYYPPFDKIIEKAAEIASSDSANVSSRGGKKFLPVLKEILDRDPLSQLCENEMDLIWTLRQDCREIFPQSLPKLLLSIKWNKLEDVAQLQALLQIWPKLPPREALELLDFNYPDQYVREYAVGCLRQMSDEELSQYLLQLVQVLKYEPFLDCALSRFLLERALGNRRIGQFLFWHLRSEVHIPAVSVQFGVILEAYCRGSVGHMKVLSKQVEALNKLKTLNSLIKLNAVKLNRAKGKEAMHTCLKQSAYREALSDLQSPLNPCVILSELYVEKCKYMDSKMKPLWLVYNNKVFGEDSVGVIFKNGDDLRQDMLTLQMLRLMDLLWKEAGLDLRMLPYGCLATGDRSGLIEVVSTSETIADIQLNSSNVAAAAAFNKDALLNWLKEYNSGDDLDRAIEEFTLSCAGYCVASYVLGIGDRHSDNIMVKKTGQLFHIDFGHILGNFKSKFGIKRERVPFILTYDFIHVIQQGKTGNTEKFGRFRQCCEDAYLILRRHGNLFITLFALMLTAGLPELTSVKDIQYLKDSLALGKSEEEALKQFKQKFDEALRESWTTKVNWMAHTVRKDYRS

[4] = target: T1, von Hippel-Lindau disease tumor suppressor/Phosphatidylinositol 4,5-bisphosphate 3-kinase catalytic subunit beta isoform; assay: PROTAC activity at PI3K-p110beta/VHL in human MCF7/ADM cells assessed as reduction in PI3K-p110beta level at 25 uM measured for 24 hrs by Western blot analysis; format: cell-based
Target sequence in this assay (P40337 whole entry, looked up, canonical isoform): as the sequence (P40337 whole entry, looked up, canonical isoform) above
Target sequence in this assay (P42338 whole entry, looked up, canonical isoform): as the sequence (P42338 whole entry, looked up, canonical isoform) above

[5] = target: T1, von Hippel-Lindau disease tumor suppressor/Phosphatidylinositol 4,5-bisphosphate 3-kinase catalytic subunit beta isoform; assay: PROTAC activity at PI3K-p110beta/VHL in human MCF7/ADM cells assessed as reduction in PI3K-p110beta mRNA level at 25 uM measured for 24 hrs by qRT-PCR analysis; format: cell-based
Target sequence in this assay (P40337 whole entry, looked up, canonical isoform): as the sequence (P40337 whole entry, looked up, canonical isoform) above
Target sequence in this assay (P42338 whole entry, looked up, canonical isoform): as the sequence (P42338 whole entry, looked up, canonical isoform) above

[6] = Toxicity in BALB/c mouse xenografted with human MCF7/ADM cells assessed as change in ALT level at 50 mg/kg, ip; format: organism-based; details: in vivo
[7] = Toxicity in BALB/c mouse xenografted with human MCF7/ADM cells assessed as change in platelet count at 50 mg/kg, ip; format: organism-based; details: in vivo
[8] = Toxicity in BALB/c mouse xenografted with human MCF7/ADM cells assessed as tumor damage at 50 mg/kg, ip by H and E staining based analysis; format: organism-based; details: in vivo
MCF7/ADM [9] = assay: Antitumor activity against human MCF7/ADM cells xenografted in BALB/c mouse assessed as reduction in p-gp expression in tumor at 50 mg/kg, ip by Western blot analysis; format: functional, organism-based
MCF7/ADM [10] = assay: Upregulation of PERK expression in human MCF7/ADM cells at 0.25 to 25 uM incubated for 24 hrs by Western blot analysis; format: functional, cell-based; details: dose 0.25-25 µM
[11] = Induction of apoptosis in human MCF7/ADM cells at 6.25 uM incubated for 24 hrs by Annexin V-FITC/PI staining based flow cytometry analysis (reference value: 5.20%); format: functional
MCF7/ADM [12] = assay: Antitumor activity against human MCF7/ADM cells xenografted in BALB/c mouse assessed as downregulation of p110beta level in tumor at 50 mg/kg, ip; format: functional, organism-based
A549/CDDP [13] = assay: Induction of apoptosis in human A549/DDP cells assessed as increase in caspase-8 expression at 12.5 uM incubated for 24 hrs by Western blot analysis; format: functional, cell-based
[14] = target: T1, von Hippel-Lindau disease tumor suppressor/Phosphatidylinositol 4,5-bisphosphate 3-kinase catalytic subunit beta isoform; assay: PROTAC activity at PI3K-p110beta/VHL in human MCF7/ADM cells assessed as reduction in PI3K-p110beta level at 25 uM incubated for 24 hrs by Western blot analysis relative to control; format: cell-based; design: scale not given: the % may be the effect or the level left
Target sequence in this assay (P40337 whole entry, looked up, canonical isoform): as the sequence (P40337 whole entry, looked up, canonical isoform) above
Target sequence in this assay (P42338 whole entry, looked up, canonical isoform): as the sequence (P42338 whole entry, looked up, canonical isoform) above

[15] = target: T2, ATP-dependent translocase ABCB1 (Homo sapiens, UniProt P08183); assay: Inhibition of P-gp in human MCF7/ADM cells assessed as increase in intracellular adriamycin accumulation at 6.25 to 25 uM incubated for 24 hrs by flow cytometry analysis; format: cell-based; details: dose 6.25-25 µM
T2 sequence (P08183 whole entry): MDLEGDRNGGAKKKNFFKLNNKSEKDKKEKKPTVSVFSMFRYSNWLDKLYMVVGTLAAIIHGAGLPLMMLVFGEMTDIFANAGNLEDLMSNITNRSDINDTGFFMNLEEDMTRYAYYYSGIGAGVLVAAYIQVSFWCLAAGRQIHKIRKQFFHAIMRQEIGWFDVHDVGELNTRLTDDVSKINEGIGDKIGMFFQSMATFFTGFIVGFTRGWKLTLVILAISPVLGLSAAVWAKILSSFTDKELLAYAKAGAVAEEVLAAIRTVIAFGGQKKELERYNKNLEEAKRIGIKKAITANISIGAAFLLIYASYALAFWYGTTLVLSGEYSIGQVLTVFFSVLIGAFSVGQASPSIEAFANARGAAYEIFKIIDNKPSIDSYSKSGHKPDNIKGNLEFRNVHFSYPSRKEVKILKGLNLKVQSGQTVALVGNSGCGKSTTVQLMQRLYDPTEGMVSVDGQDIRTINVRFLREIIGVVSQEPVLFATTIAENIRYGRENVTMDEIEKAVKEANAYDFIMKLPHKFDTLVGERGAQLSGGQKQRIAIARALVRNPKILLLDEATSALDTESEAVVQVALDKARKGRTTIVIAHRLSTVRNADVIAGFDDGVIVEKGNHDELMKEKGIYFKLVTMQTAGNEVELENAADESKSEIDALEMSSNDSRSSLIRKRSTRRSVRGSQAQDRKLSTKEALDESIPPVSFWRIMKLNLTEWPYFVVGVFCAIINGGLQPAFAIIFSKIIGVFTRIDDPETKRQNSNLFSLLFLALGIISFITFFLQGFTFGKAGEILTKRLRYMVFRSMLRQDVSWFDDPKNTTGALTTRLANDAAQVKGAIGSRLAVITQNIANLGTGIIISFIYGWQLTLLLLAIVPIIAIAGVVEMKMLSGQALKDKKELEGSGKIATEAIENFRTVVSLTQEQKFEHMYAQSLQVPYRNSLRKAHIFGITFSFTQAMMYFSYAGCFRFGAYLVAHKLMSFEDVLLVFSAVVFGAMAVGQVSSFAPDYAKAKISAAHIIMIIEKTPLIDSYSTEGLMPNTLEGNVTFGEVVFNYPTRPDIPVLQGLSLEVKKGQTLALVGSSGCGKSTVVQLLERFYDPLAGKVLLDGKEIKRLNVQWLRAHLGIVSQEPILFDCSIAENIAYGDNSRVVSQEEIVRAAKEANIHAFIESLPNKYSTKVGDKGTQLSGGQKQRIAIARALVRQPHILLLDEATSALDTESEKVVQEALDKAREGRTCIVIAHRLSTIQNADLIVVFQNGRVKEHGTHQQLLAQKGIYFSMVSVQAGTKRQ

MCF7/ADM [16] = assay: Antitumor activity against human MCF7/ADM cells xenografted in BALB/c mouse assessed as increase in pIRE1 expression in tumor at 50 mg/kg, ip by Western blot analysis; format: functional, organism-based
[17] = target: T3, von Hippel-Lindau disease tumor suppressor/Phosphatidylinositol 4,5-bisphosphate 3-kinase catalytic subunit alpha isoform (Homo sapiens, UniProt P42336+P40337); assay: PROTAC activity at PI3K-p110alpha/VHL in human A549/DDP cells assessed as induction of PI3K-p110alpha degradation at 0.04 to 50 uM by Western blot analysis; format: cell-based; details: dose 0.04-50 µM, time 24.0 hrs
T3 sequence (P40337 whole entry, looked up, canonical isoform): as the sequence (P40337 whole entry, looked up, canonical isoform) above
T3 sequence (P42336 whole entry, looked up, canonical isoform): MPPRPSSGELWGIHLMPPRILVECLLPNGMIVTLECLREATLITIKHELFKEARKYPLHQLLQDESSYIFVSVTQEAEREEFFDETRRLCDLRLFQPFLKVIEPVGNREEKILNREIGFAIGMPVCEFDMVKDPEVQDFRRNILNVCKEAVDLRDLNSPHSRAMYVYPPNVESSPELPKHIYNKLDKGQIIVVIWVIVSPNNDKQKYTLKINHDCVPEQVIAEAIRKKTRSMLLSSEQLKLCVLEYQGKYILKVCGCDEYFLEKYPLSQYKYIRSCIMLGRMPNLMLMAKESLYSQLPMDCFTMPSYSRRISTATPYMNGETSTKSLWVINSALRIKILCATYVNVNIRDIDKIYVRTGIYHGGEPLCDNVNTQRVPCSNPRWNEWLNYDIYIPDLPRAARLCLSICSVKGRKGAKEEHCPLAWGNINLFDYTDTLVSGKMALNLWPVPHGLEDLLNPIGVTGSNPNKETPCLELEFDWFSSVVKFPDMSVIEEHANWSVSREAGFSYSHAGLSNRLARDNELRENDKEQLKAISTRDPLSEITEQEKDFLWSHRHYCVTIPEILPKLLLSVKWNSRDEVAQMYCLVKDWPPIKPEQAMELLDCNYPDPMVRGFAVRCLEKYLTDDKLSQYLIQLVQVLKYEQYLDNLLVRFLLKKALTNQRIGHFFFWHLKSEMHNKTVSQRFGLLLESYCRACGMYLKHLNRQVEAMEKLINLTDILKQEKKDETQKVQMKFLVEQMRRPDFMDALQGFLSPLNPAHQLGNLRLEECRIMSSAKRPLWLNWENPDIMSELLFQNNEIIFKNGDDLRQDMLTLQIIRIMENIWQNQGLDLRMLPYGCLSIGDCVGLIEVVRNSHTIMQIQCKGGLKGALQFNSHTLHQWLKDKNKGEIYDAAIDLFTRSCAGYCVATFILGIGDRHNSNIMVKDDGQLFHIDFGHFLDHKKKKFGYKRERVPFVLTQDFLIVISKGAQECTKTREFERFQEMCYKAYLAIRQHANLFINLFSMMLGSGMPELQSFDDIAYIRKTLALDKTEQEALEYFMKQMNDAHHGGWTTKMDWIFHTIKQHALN

[18] = Toxicity in BALB/c mouse xenografted with human MCF7/ADM cells assessed as liver damage at 50 mg/kg, ip by H and E staining based analysis; format: organism-based; details: in vivo
[19] = target: T3, von Hippel-Lindau disease tumor suppressor/Phosphatidylinositol 4,5-bisphosphate 3-kinase catalytic subunit alpha isoform; assay: PROTAC activity at PI3K-p110alpha/VHL in human MCF7/ADM cells assessed as reduction in PI3K-p110alpha mRNA level at 25 uM measured for 24 hrs by qRT-PCR analysis; format: cell-based
A549/CDDP [20] = assay: Induction of oxidative stress in human A549/DDP cells at 25 uM measured for 24 hrs; format: functional, cell-based
MCF7/ADM [21] = assay: Antitumor activity against human MCF7/ADM cells xenografted in BALB/c mouse assessed as increase in PERK expression in tumor at 50 mg/kg, ip by Western blot analysis; format: functional, organism-based
MCF7/ADM [22] = assay: Downregulation of p-gp level in human MCF7/ADM cells at 6.25 to 25 uM incubated for 24 hrs; format: functional, cell-based; details: dose 6.25-25 µM
[23] = target: T2, ATP-dependent translocase ABCB1; assay: Inhibition of P-gp in human MCF7/ADM cells at 6.25 to 25 uM incubated for 24 hrs; format: cell-based; details: dose 6.25-25 µM
[24] = target: T1, von Hippel-Lindau disease tumor suppressor/Phosphatidylinositol 4,5-bisphosphate 3-kinase catalytic subunit beta isoform; assay: PROTAC activity at PI3K-p110beta/VHL in human A549/DDP cells assessed as reduction in PI3K-p110beta level at 25 uM measured for 24 hrs by Western blot analysis; format: cell-based
Target sequence in this assay (P40337 whole entry, looked up, canonical isoform): as the sequence (P40337 whole entry, looked up, canonical isoform) above
Target sequence in this assay (P42338 whole entry, looked up, canonical isoform): as the sequence (P42338 whole entry, looked up, canonical isoform) above

A549/CDDP [25] = assay: Upregulation of PTEN expression in human A549/DDP cells at 25 uM incubated for 24 hrs by Western blot analysis; format: functional, cell-based
MCF7/ADM [26] = assay: Antitumor activity against human MCF7/ADM cells xenografted in BALB/c mouse assessed as decrease in bcl-2 expression in tumor at 50 mg/kg, ip by Western blot analysis; format: functional, organism-based
[27] = Toxicity in BALB/c mouse xenografted with human MCF7/ADM cells assessed as lung damage at 50 mg/kg, ip by H and E staining based analysis; format: organism-based; details: in vivo
[28] = Induction of apoptosis in human MCF7/ADM cells at 25 uM incubated for 24 hrs by Annexin V-FITC/PI staining based flow cytometry analysis (reference value: 5.20%); format: functional
[29] = target: T1, von Hippel-Lindau disease tumor suppressor/Phosphatidylinositol 4,5-bisphosphate 3-kinase catalytic subunit beta isoform; assay: PROTAC activity at PI3K-p110beta/VHL in human A549/DDP cells assessed as reduction in PI3K-p110beta mRNA level at 25 uM measured for 24 hrs by qRT-PCR analysis; format: cell-based
Target sequence in this assay (P40337 whole entry, looked up, canonical isoform): as the sequence (P40337 whole entry, looked up, canonical isoform) above
Target sequence in this assay (P42338 whole entry, looked up, canonical isoform): as the sequence (P42338 whole entry, looked up, canonical isoform) above

A549/CDDP [30] = assay: Induction of apoptosis in human A549/DDP cells at 12.5 uM incubated for 24 hrs by Annexin V-FITC/PI staining based flow cytometry analysis (reference value: 4.27%); format: functional
[31] = target: T1, von Hippel-Lindau disease tumor suppressor/Phosphatidylinositol 4,5-bisphosphate 3-kinase catalytic subunit beta isoform; assay: PROTAC activity at PI3K-p110beta/VHL in human MCF7/ADM cells assessed as induction of PI3K-p110beta degradation incubated for 24 hrs by Western blot analysis; format: cell-based
Target sequence in this assay (P42338 whole entry, canonical isoform): as the sequence (P42338 whole entry, looked up, canonical isoform) above
Target sequence in this assay (P40337 whole entry, canonical isoform): as the sequence (P40337 whole entry, looked up, canonical isoform) above

A549/CDDP [32] = assay: Induction of apoptosis in human A549/DDP cells at 6.25 uM incubated for 24 hrs by Annexin V-FITC/PI staining based flow cytometry analysis (reference value: 4.27%); format: functional
A549/CDDP [33] = assay: Induction of apoptosis in human A549/DDP cells at 25 uM incubated for 24 hrs in presence of TUDCA by Annexin V-FITC/PI staining based flow cytometry analysis (reference value: 4.27%); format: functional

Activity [3] | Activity [4] | inhibition (INH) [15] | Activity [17] | inhibition (INH) [23] | Activity [24] | SMILES | Activity (MCF7/ADM [1]) | Activity (A549/CDDP [2]) | Activity [6] | Activity [7] | Activity [8] | Activity (MCF7/ADM [9]) | Activity (MCF7/ADM [10]) | Activity (MCF7/ADM [12]) | Activity (A549/CDDP [13]) | Activity (MCF7/ADM [16]) | Activity [18] | Activity (A549/CDDP [20]) | Activity (MCF7/ADM [21]) | Activity (MCF7/ADM [22]) | other results
inactive | Active | Active | Time-dependent-effect | Active | Active | Cc1cc(C(C)Nc2ccccc2C(=O)NCCOCCOCCC(=O)N[C@H](C(=O)N2C[C@H](O)C[C@H]2C(=O)NCc2ccc(-c3scnc3C)cc2)C(C)(C)C)c2nc(N3CCOCC3)cc(=O)n2c1 (stereo partly specified) | Active | Active | Non-toxic | Non-toxic | Non-toxic | Active | Active | Active | Active | Active | Non-toxic | Active | Active | Active | Activity [5]: Active; Activity [11]: 6.88%; Activity [14]: 75%; Activity [19]: Active; Activity (A549/CDDP [25]): Active; Activity (MCF7/ADM [26]): Active; Activity [27]: Non-toxic; Activity [28]: 26.66%
inactive | Active | Active | Time-dependent-effect | Active | Active | Cc1cc(C(C)Nc2ccccc2C(=O)NCCCCCCC(=O)N[C@H](C(=O)N2C[C@H](O)C[C@H]2C(=O)NCc2ccc(-c3scnc3C)cc2)C(C)(C)C)c2nc(N3CCOCC3)cc(=O)n2c1 (stereo partly specified) | Active | Active | Non-toxic | Non-toxic | Non-toxic | Active | Active | Active | Active | Active | Non-toxic | Active | Active | Active | Activity [29]: inactive; Activity (A549/CDDP [30]): 15.76%; DC50 [31]: 1260 nM; Activity (A549/CDDP [32]): 8.73%; Activity (A549/CDDP [33]): 22.84%; Activity (A549/CDDP [25]): Active; Activity (MCF7/ADM [26]): Active; Activity [27]: Non-toxic
